From paper PMC8591201, “Anti-Tumor Activity of AZD4547 Against NTRK1 Fusion Positive Cancer Cells Through Inhibition of NTRKs” (Frontiers in Oncology, 2021)

Assays:
AGS = assay: cells; parameters: Anti-proliferation, 10-point dose response, CellTiter-Glo luminescence (MTT stated for KM12(Luc)), GI50 fitted in Prism; conditions: Homo sapiens, AGS, 72 h, read-out: GI50 (µM) a
U-2-OS = assay: cells; parameters: Anti-proliferation, 10-point dose response, CellTiter-Glo luminescence (MTT stated for KM12(Luc)), GI50 fitted in Prism; conditions: Homo sapiens, U2OS, 72 h, read-out: GI50 (µM) a
HEP3B = assay: cells; parameters: Anti-proliferation, 10-point dose response, CellTiter-Glo luminescence (MTT stated for KM12(Luc)), GI50 fitted in Prism; conditions: Homo sapiens, Hep3B, 72 h, read-out: GI50 (µM) a
NCI-H2009 = assay: cells; parameters: Anti-proliferation, 10-point dose response, CellTiter-Glo luminescence (MTT stated for KM12(Luc)), GI50 fitted in Prism; conditions: Homo sapiens, NCI-H2009, 72 h, read-out: GI50 (µM) a
TRKB = molecular target: T1, TRKB (Homo sapiens, UniProt Q16620); assay: radiometric biochemical kinase assay
T1 construct: gene NTRK2

in vitro = assay: in vitro; parameters: CellTiter-Glo viability of parental Ba/F3 cells, counter-screen; conditions: mouse, parental ba/f3 cells; read-out: AZD4547 parental
Method: To obtain the GI50 value of a substance, cell viability was measured using MTT (G4000, Promega, USA) for KM12(Luc) cell and Cell titer glo (G7572, Promega, USA) for other cell lines. For adherent cells, cells were seeded at 5,000 cells/well in a 96-well plate and treated with a substance one day after cell seeding. For suspension cells, 10,000 cells/well were seeded and the substance was treated after 4 h stabilization of cells. The substance was treated at 10 points of 1:3 serial dilution (0–100 µmol/L) for 72 h. For MTT assay, 15 µL dye solution was added to each well and incubated 4 h at 37°C. 100 µL of solubilization solution was added and followed 1 hr incubation. Absorbance at 570 nm of each well was recorded using EnVision microplate reader (Perkin Elmer). For Cell titer glo assay, Cell titer glo reagent was treated in each well and measured the luminescence by EnVision microplate reader (Perkin Elmer). Viable cells in each well were normalized by using 0.5% DMSO-treated wells (100%). The inhibitor dose−response curve was fitted and GI50 values were calculated using Prism 7.0 software (GraphPad). All assays were performed in duplicate and the standard deviation (SD) was determined from two independent experiments. […] Cell viability after 72 h exposure to the indicated inhibitors, determined by using a cell titer glo assay in duplicate mode. […]

T1 sequence (Q16620 32-822): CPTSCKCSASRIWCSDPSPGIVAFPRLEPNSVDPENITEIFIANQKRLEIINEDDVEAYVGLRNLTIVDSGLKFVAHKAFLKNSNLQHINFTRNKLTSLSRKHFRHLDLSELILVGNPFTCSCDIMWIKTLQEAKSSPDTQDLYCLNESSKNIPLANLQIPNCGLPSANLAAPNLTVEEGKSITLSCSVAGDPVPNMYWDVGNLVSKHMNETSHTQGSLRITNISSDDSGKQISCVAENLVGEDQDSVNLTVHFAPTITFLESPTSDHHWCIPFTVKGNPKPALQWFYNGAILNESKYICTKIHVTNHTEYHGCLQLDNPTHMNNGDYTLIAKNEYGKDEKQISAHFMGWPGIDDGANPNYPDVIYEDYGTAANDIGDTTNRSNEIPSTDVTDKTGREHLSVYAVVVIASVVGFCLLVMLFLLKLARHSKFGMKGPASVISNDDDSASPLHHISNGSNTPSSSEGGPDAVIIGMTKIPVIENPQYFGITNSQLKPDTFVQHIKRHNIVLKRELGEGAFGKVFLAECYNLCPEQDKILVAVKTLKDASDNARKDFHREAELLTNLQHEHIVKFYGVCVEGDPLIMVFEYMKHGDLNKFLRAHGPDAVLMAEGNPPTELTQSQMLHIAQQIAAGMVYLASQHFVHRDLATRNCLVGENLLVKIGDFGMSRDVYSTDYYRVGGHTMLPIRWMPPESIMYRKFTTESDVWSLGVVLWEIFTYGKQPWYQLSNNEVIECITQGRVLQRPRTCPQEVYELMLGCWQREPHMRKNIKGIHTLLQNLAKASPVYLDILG

With `COc1cc(CCc2cc(NC(=O)c3ccc(N4C[C@@H](C)N[C@@H](C)C4)cc3)n[nH]2)cc(OC)c1` [AZD4547] the GI50 (AGS) was 58.1 µM, the GI50 (U-2-OS) was 0.43 µM and the GI50 (HEP3B) was 19.7 µM. The GI50 (NCI-H2009) was 50 µM, the IC50 (TRKB) was 0.0076 µM and the CC50 at 72 h (in vitro) was greater than 2 µM.
